Several values for one entry are separate records, joined by “and”; a condition that tells them apart may be missing. Equal values may be shown once. Toxic doses and inconclusive results are not listed.
Tested on: P388 leukemia ip, CD2F1 mice, survival T/C
Assay: NCI In Vivo Anticancer Drug Screen. Data for tumor model P388 Leukemia (intraperitoneal) in CD2F1 (CDF1) mice
Settings: endpoint: median survival time, higher = longer survival
How it was run: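 Mice carrying the transplanted tumor received test compound or vehicle. Survival was recorded in each group, and the value is the treated-group measurement divided by that of the vehicle-treated control group.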

[1] = dose: 6.25 mg/kg/injection, schedule: Q01DX009 (ip), vehicle: saline with Tween-80
[2] = dose: 12.5 mg/kg/injection, schedule: Q01DX009 (ip), vehicle: saline with Tween-80
[3] = dose: 25.0 mg/kg/injection, schedule: Q01DX009 (ip), vehicle: saline with Tween-80
[4] = dose: 50.0 mg/kg/injection, schedule: Q01DX009 (ip), vehicle: saline with Tween-80
[5] = dose: 60.0 mg/kg/injection, schedule: Q01DX005 (ip), vehicle: Klucel (hydroxypropylcellulose) (HPC)
[6] = dose: 120.0 mg/kg/injection, schedule: Q01DX005 (ip), vehicle: Klucel (hydroxypropylcellulose) (HPC)
[7] = dose: 240.0 mg/kg/injection, schedule: Q01DX005 (ip), vehicle: Klucel (hydroxypropylcellulose) (HPC)
[8] = dose: 12.5 mg/kg/injection, schedule: Q01DX009 (ip), vehicle: saline
[9] = dose: 25.0 mg/kg/injection, schedule: Q01DX009 (ip), vehicle: saline
[10] = dose: 50.0 mg/kg/injection, schedule: Q01DX009 (ip), vehicle: saline
[11] = dose: 50.0 mg/kg/injection, schedule: Q01DX009 (ip), vehicle: Klucel (hydroxypropylcellulose) (HPC)
[12] = dose: 100.0 mg/kg/injection, schedule: Q01DX009 (ip), vehicle: Klucel (hydroxypropylcellulose) (HPC)
[13] = dose: 200.0 mg/kg/injection, schedule: Q01DX009 (ip), vehicle: Klucel (hydroxypropylcellulose) (HPC)
[14] = dose: 50.0 mg/kg/injection, schedule: Q01DX005 (ip), vehicle: Klucel (hydroxypropylcellulose) (HPC)
[15] = dose: 100.0 mg/kg/injection, schedule: Q01DX005 (ip), vehicle: Klucel (hydroxypropylcellulose) (HPC)
[16] = dose: 200.0 mg/kg/injection, schedule: Q01DX005 (ip), vehicle: Klucel (hydroxypropylcellulose) (HPC)

## Nc1nc(=S)c2[nH]cnc2[nH]1
dose: 0.25 mg/kg/injection, schedule: Q01DX009 (ip), vehicle: acid diluted with saline
  T/C: 114 % of control
dose: 0.25 mg/kg/injection, schedule: Q01DX009 (ip), vehicle: alkali diluted with saline
  T/C: 120 % of control
dose: 0.38 mg/kg/injection, schedule: Q01DX005 (ip), vehicle: alkali diluted with saline
  T/C: 108 % of control
dose: 0.5 mg/kg/injection, schedule: Q01DX009 (ip), vehicle: acid diluted with saline
  T/C: 106 % of control
dose: 0.5 mg/kg/injection, schedule: Q01DX009 (ip), vehicle: alkali diluted with saline
  T/C: 119 % of control
dose: 0.75 mg/kg/injection, schedule: Q01DX005 (ip), vehicle: alkali diluted with saline
  T/C: 115 % of control
dose: 1.0 mg/kg/injection, schedule: Q01DX009 (ip), vehicle: acid diluted with saline
  T/C: 112 % of control
dose: 1.12 mg/kg/injection, schedule: Q04DX003 (ip), vehicle: acid diluted with saline
  T/C: 109 % of control
dose: 1.44 mg/kg/injection, schedule: Q01DX009 (ip), vehicle: acid diluted with saline
  T/C: 155 % of control
dose: 1.5 mg/kg/injection, schedule: Q01DX005 (ip), vehicle: alkali diluted with saline
  T/C: 123 % of control
dose: 1.5 mg/kg/injection, schedule: Q01DX009 (ip), vehicle: acid diluted with saline
  T/C: 154 % of control
dose: 1.5 mg/kg/injection, schedule: Q01DX009 (ip), vehicle: alkali diluted with saline
  T/C: 151 % of control
dose: 2.0 mg/kg/injection, schedule: Q01DX005 (ip), vehicle: alkali diluted with saline
  T/C: 157 % of control
dose: 2.0 mg/kg/injection, schedule: Q01DX009 (ip), vehicle: acid diluted with saline
  T/C: 106 % of control
dose: 2.0 mg/kg/injection, schedule: Q04DX003 (ip), vehicle: alkali diluted with saline
  T/C: 119 % of control
dose: 2.25 mg/kg/injection, schedule: Q04DX003 (ip), vehicle: acid diluted with saline
  T/C: 119 % of control
dose: 2.4 mg/kg/injection, schedule: Q01DX009 (ip), vehicle: acid diluted with saline
  T/C: 154 % of control and 170 % of control
dose: 2.5 mg/kg/injection, schedule: Q04DX003 (ip), vehicle: alkali diluted with saline
  T/C: 116 % of control
dose: 3.24 mg/kg/injection, schedule: Q04DX003 (ip), vehicle: acid diluted with saline
  T/C: 117 % of control
dose: 4.5 mg/kg/injection, schedule: Q01DX009 (ip), vehicle: saline
  T/C: 122 % of control
dose: 4.5 mg/kg/injection, schedule: Q04DX003 (ip), vehicle: acid diluted with saline
  T/C: 119 % of control
dose: 5.0 mg/kg/injection, schedule: Q04DX003 (ip), vehicle: alkali diluted with saline
  T/C: 108 % of control
dose: 6.0 mg/kg/injection, schedule: Q01DX005 (ip), vehicle: alkali diluted with saline
  T/C: 116 % of control
dose: 6.0 mg/kg/injection, schedule: Q01DX009 (ip), vehicle: acid diluted with saline
  T/C: 105 % of control
dose: 12.0 mg/kg/injection, schedule: Q01DX005 (ip), vehicle: alkali diluted with saline
  T/C: 113 % of control
dose: 20.0 mg/kg/injection, schedule: Q04DX003 (ip), vehicle: alkali diluted with saline
  T/C: 120 % of control

## C=C(Cl)CSC(=S)N(CC)CC
dose: 37.5 mg/kg/injection, schedule: Q01DX009 (ip), vehicle: saline sonified
  T/C: 100 % of control
dose: 75.0 mg/kg/injection, schedule: Q01DX009 (ip), vehicle: saline sonified
  T/C: 104 % of control
dose: 150.0 mg/kg/injection, schedule: Q01DX009 (ip), vehicle: saline sonified
  T/C: 109 % of control

## COc1cc(/C=C/C(=O)CC(=O)/C=C/c2ccc(O)c(OC)c2)ccc1O
[1]
  T/C: 103 % of control
[2]
  T/C: 100 % of control
[3]
  T/C: 100 % of control
[4]
  T/C: 94 % of control

## CC1C(c2ccccc2)OCN1CC=C(c1ccsc1)c1ccsc1 (stereo not given)
[5]
  T/C: 96 % of control
[6]
  T/C: 91 % of control
[7]
  T/C: 91 % of control

## O=[N+]([O-])c1ccc(/C(=C/c2ccccc2)S(=O)(=O)C(Cl)(Cl)Cl)o1
[8]
  T/C: 102 % of control and 97 % of control
[9]
  T/C: 104 % of control and 92 % of control
[10]
  T/C: 104 % of control and 92 % of control
dose: 50.0 mg/kg/injection, schedule: Q01DX009 (ip), vehicle: suspension in saline
  T/C: 100 % of control
dose: 100.0 mg/kg/injection, schedule: Q01DX009 (ip), vehicle: saline
  T/C: 101 % of control and 112 % of control

## Cc1ccc(S(=O)(=O)CCCCS(=O)(=O)c2ccc(C)cc2)cc1
dose: 60.0 mg/kg/injection, schedule: Q01DX005 (ip), vehicle: saline with Tween-80
  T/C: 107 % of control
dose: 120.0 mg/kg/injection, schedule: Q01DX005 (ip), vehicle: saline with Tween-80
  T/C: 104 % of control
dose: 240.0 mg/kg/injection, schedule: Q01DX005 (ip), vehicle: saline with Tween-80
  T/C: 97 % of control

## [Cu+2].[NH-]C(CC(=O)O)C(=O)O.[NH-]C(CC(=O)O)C(=O)O (stereo not given)
dose: 7.5 mg/kg/injection, schedule: Q01DX005 (ip), vehicle: saline with Tween-80
  T/C: 98 % of control
dose: 15.0 mg/kg/injection, schedule: Q01DX005 (ip), vehicle: saline with Tween-80
  T/C: 100 % of control
dose: 30.0 mg/kg/injection, schedule: Q01DX005 (ip), vehicle: saline with Tween-80
  T/C: 111 % of control

## N=C(N)SCc1nc(-c2ccc(Cl)cc2)no1
[1]
  T/C: 109 % of control
dose: 6.25 mg/kg/injection, schedule: Q01DX009 (ip), vehicle: saline
  T/C: 98 % of control
[2]
  T/C: 106 % of control
[8]
  T/C: 104 % of control and 106 % of control
[3]
  T/C: 106 % of control
[9]
  T/C: 108 % of control and 111 % of control
[4]
  T/C: 113 % of control
[10]
  T/C: 110 % of control and 121 % of control and 123 % of control

## CCOC(=Nc1ccc(C#N)cc1)SC(c1ccccc1)(c1ccccc1)c1ccccc1
dose: 50.0 mg/kg/injection, schedule: Q01DX005 (ip), vehicle: saline with Tween-80
  T/C: 104 % of control
dose: 100.0 mg/kg/injection, schedule: Q01DX005 (ip), vehicle: saline with Tween-80
  T/C: 96 % of control
dose: 200.0 mg/kg/injection, schedule: Q01DX005 (ip), vehicle: saline with Tween-80
  T/C: 86 % of control

## CCN(CC)CCNc1c2ccc(Cl)cc2nc2ccc(OC)nc12
[11]
  T/C: 114 % of control
[12]
  T/C: 111 % of control
[13]
  T/C: 117 % of control

## CN(C)c1ccc(-c2nc3ccccc3s2)c(Cl)c1
[4]
  T/C: 102 % of control
dose: 100.0 mg/kg/injection, schedule: Q01DX009 (ip), vehicle: saline with Tween-80
  T/C: 103 % of control
dose: 200.0 mg/kg/injection, schedule: Q01DX009 (ip), vehicle: saline with Tween-80
  T/C: 109 % of control

## c1ccc2c(SCCCCCCCCCCCCSc3c4ccccc4nc4ccccc34)c3ccccc3nc2c1
[5]
  T/C: 104 % of control
[6]
  T/C: 98 % of control
[7]
  T/C: 90 % of control

## CCOC(=O)/C(C#N)=N/Nc1ccc2cn[nH]c2c1
[14]
  T/C: 99 % of control
[15]
  T/C: 94 % of control
[16]
  T/C: 97 % of control

## COC(=O)/C(C#N)=C/c1cccnc1
[14]
  T/C: 101 % of control
[15]
  T/C: 101 % of control
[16]
  T/C: 107 % of control

## C/C=C(/C)C(=O)OC1CC(C)=CC(OC(=O)/C(C)=C\C)[C@]2(C)C1[C@](O)(C(C)C)C[C@H]2OC(C)=O (stereo not given in full)
dose: 5.0 mg/kg/injection, schedule: Q01DX005 (ip), vehicle: Klucel + Tween-80
  T/C: 95 % of control
dose: 10.0 mg/kg/injection, schedule: Q01DX005 (ip), vehicle: Klucel + Tween-80
  T/C: 97 % of control
dose: 20.0 mg/kg/injection, schedule: Q01DX005 (ip), vehicle: Klucel + Tween-80
  T/C: 100 % of control
dose: 40.0 mg/kg/injection, schedule: Q01DX005 (ip), vehicle: Klucel + Tween-80
  T/C: 91 % of control

## O=C1c2cc(Cl)ccc2OC2CCON12 (stereo not given)
[11]
  T/C: 108 % of control
[12]
  T/C: 110 % of control
[13]
  T/C: 116 % of control

From PubChem BioAssay AID330 (DTP/NCI, 2004)
